Here are results for one compound from US20150182667A1, “Composition with Biofilm Dispersal Agents” (Vanderbilt University, priority 2012, published 2015).

The subject of data set [1] is S. aureus clinical isolate biofilms. Kind of data set: Biofilm dispersal and prevention, crystal violet 96-well assay (Example 1). The class given is cell-based, Staphylococcus aureus. As to conditions: 5 mM. The method, then:
(§1) Biofilm formation was performed under static conditions in polystyrene 96-well plates (Corning, Inc., Corning, N.Y.). Briefly, overnight bacterial cultures were diluted to an OD600 of 0.1 in CA-MHB and 10 μL was added to individual wells filled with 190 μl of media and incubated at 37° C. for 48 h without shaking for biofilm growth. Following incubation, culture media was removed and 200 μL media containing individual D-AA at concentrations of 5 mM-1 nM was added. Plates were incubated for an additional 24 h at 37° C. After treatment, plates were gently washed with 1× phosphate buffered saline (PBS; pH 7.4) to remove non-adherent bacteria. Biofilms (i.e. attached cells) were then stained with 0.1% (w/v) crystal violet for 10 min, washed, followed by solubilization of crystal violet with 33% (v/v) acetic acid for 10 min. Biofilm biomass was determined by measuring the absorbance at 570 nm using a microtiter plate reader. For assays measuring the ability of D-AA to block biofilm formation, cells were grown under biofilm conditions as above in the presence of media containing D-AA. Three independent experiments with a minimum of 4 replicates were performed for each experimental assay. Representative images of the plates of CV stained biofilms following treatment with D-AA, prior to solubilization, were taken using a digital camera.

Data set [2] has as its system P. aeruginosa clinical isolate biofilms. The data set is described as above. As to conditions: 5 mM. The format is cell-based, Pseudomonas aeruginosa. The method, then:
as §1

In data set [3] the test system is human dermal fibroblasts. Kind of data set: CellTiter-Fluor cell viability assay. The format is cell-based. As to conditions: dermal fibroblasts, 24 h. The method, then: (§2) To observe the cellular viability of PUR/D-AA composites, human dermal fibroblasts and human osteoblasts (PromoCell) were maintained in Dulbecco's Modified Eagle Medium (DMEM; Invitrogen) supplemented with 10% Fetal Bovine Serum (FBS) and 1× penicillin/streptomycin. Human epidermal keratinocytes (HEK-001; ATCC CRL-2404) were maintained in Keratinocyte-serum free media (GIBCO) supplemented with 5 ng/mL human recombinant EGF and 2 mM L-glutamine. All cell lines were cultured at 37° C. in 5% CO2. Prior to each assay cells were seeded at 100% confluence in black-clear bottom 96-well plates. After 24 h, cells were exposed to media containing D-AA, 50 mM-1 nM, and incubated for 24-48 h at 37° C. in 5% CO2. Following treatment, cells were washed, resuspended in 100 μL of sterile saline and viability was determined using the CellTiter-Flour Cell Viability Assay (Promega) following the manufacturer's instructions. Viability assays were performed in triplicate with a minimum of 3 replicates. Viability was reported as the percentage of viable cells relative to untreated controls.
(§3) Human dermal fibroblasts and osteoblasts (PromoCell, Heidelberg, Germany) were maintained in Dulbecco's Modified Eagle Medium (DMEM; Invitrogen, Grand Island, N.Y.) supplemented with 10% Fetal Bovine Serum (FBS) and 1× penicillin/streptomycin at 37° C. in 5% CO2. Prior to each assay, cells were seeded at 100% confluence in black-clear bottom 96-well plates. After 24 h cells were exposed to media containing D-AA (1 nM-50 mM) and incubated for 24 h. Following treatment, cells were washed, re-suspended in 100 μL of sterile saline, and assessed for viability using the CellTiter-Fluor Cell Viability Assay (Promega, Madison, Wis.) following the manufacturer's instructions. Viability assays were performed in triplicate with a minimum of four replicates. Viability was reported as the percentage of viable cells relative to untreated controls.

The subject of data set [4] is human osteoblasts. Description: CellTiter-Fluor cell viability assay. The class given is cell-based. As to conditions: 24 h. The method, then: as §2, §3
The subject of data set [5] is S. aureus clinical isolates biofilms. Description: Biofilm dispersal and prevention, crystal violet assay (Example 3). The class given is cell-based. On the procedure: Like in Example 1, biofilm formation was assessed under static conditions using polystyrene 96-well plates (Corning, Inc.). Overnight bacterial cultures were diluted to an OD600 of 0.1 in TSB (˜10^7 CFU/mL), and 20 μL were added to individual wells filled with 180 μL of media and incubated at 37° C. for 48 h. To assess the biofilm dispersal activity of D-AAs, the culture medium from biofilms was removed after 48 h and 200 μL fresh medium containing either an individual D-AA or an equimolar mixture of D-AAs (1:1:1: D-Met:D-Pro:D-Trp) were added at the indicated concentrations. After treatment with D-AA(s) for 24 h, plates were gently washed with 1× phosphate buffered saline (PBS) to remove unattached cells, stained with 0.1% (w/v) crystal violet (Sigma Aldrich) for 10 min, rinsed with PBS, and then solubilized with 80% (v/v) ethanol. Biofilm biomass was determined by measuring the absorbance of solubilized stain at 570 nm using a microtiter plate reader. For assays measuring the ability of D-AA to block biofilm formation, cells were grown under biofilm conditions as above in the presence of media containing D-AAs. Representative images of the plates of CV-stained biofilms following treatment with D-AA prior to solubilization were taken using a digital camera. All assays were repeated in triplicate with a minimum of four technical replicates.

Data set [6] is described as follows: Release of D-AAs from PUR scaffolds in PBS (HPLC). The format is physicochemical. The method, then:
Also, kinetic release assays were performed on the PUR scaffolds by incorporating 10 wt % of a 1:1:1 mixture of D-Tr:D-Pro:D-Met incubated in PBS for up to 8 weeks. The medium was be sampled twice weekly and analyzed for D-AAs by HPLC.
PUR scaffolds incorporating 10 wt % of a 1:1:1 mixture of D-Met:D-Pro:D-Trp were incubated in PBS at 37° C. under static conditions for up to 8 weeks. This mixture was evaluated in vitro, in vivo and in the release kinetics tests to account for potential interactions between D-AAs during release. The medium was sampled on days 1, 2, 4, 7, 10, 14, 21, and 28 and analyzed for D-AAs by HPLC using a system equipped with a Waters 1525 binary pump and a 2487 Dual-Absorbance Detector at 200 nm. Samples of released D-AAs were eluted through an Atlantis HILIC Silica column (5 μm particle size, 4.6 mm diameter×250 mm length) using an isocratic mobile phase flowing at 1 mL/min. The mobile phase contained 2.5 mM potassium dihydrogen phosphate with pH=2.85 (A) and Acetonitrile (B) at a ratio of A25:B75. The column oven temperature was maintained at 30° C. Sample concentration was determined in reference to an external standard curve using the Waters Breeze system. Standard curves were prepared in the following concentration ranges: (1) 7.8 μg/mL to 1 mg/mL for D-Met and D-Pro and (2) […] to 100 μg/mL for D-Trp.

The subject of data set [7] is S. aureus Xen 36A. Description: Contaminated 6-mm excisional cutaneous wounds in mice. The class given is in vivo, C57BL/6 mice. The note with it: 2×10^6 CFU, collagen gel with 5% D-Trp, 1 and 3 days, not shown. The method, then:
6-mm excisional wounds in C57BL/6 mice (6-8 weeks), which had previously been shaved and sterilized, were made. The mice were contaminated with 2×10^6 or 2×10^7 CFU S. aureus Xen 36A (Perkin Elmer, Waltham, Mass.). Approximately 2-3 minutes following exposure to bacteria, collagen gels (hydrogel, HG) with and without 5% D-Trp were applied to the wounds for about 5 minutes before applying a Tegaderm bandage (3M, St. Paul, Minn.). Wounds were monitored daily for up to 3 days. At 1 and 3 days post-infection mice were evaluated using the IVIS (to visualized bioluminescent bacteria within wounds) and the wound tissues were harvested, homogenized, and plated on blood agar to enumerate bacteria within wound (CFU/mL/g tissue).

A short description of data set [8]: Release of D-Trp from collagen gel. The format is physicochemical. The note with it: collagen gel with 5% D-Trp.
The mark [9] stands for this setting: concentrations exceeding 12.5 mM.

On to `N[C@H](Cc1c[nH]c2ccccc12)C(=O)O` [D-Trp, D-tryptophan], for which the “biofilm dispersal against panel of clinical isolates (biofilm biomass OD570)” value in data set [1] (S. aureus clinical isolates, FIGS. 3A, 3C) was “capable of significantly dispersing biofilm formation”; in data set [2] (P. aeruginosa clinical isolates, FIGS. 3A, 3C) it was “capable of significantly dispersing biofilm formation”. Moreover, the “biofilm dispersal in pre-screening of eight D-AAs” value in data set [1] (pre-formed S. aureus biofilms, FIG. 1) is given as “relatively more effective at dispersing biofilms”; in data set [2] (pre-formed P. aeruginosa biofilms, FIG. 1), “relatively more effective at dispersing biofilms”. Also, the cytotoxicity result in data set [3] (50 and 25 mM) is given as “toxic”; in data set [3] (effective range 1-5 mM), “minimal cytotoxicity”; in data set [4] (50 and 25 mM), “toxic”; in data set [4] (effective range 1-5 mM) it was “minimal cytotoxicity”. Also, the “viability (percentage of viable cells relative to untreated controls)” value in data set [3] (setting [9]) and in data set [4] (setting [9]) was approximately 60% throughout. Also, the “dispersal of established biofilms (biofilm biomass)” value in data set [5] (panel of clinical isolates of methicillin-resistant S. aureus (n=5), 5 mM, 24 h, FIGS. 8A, 8C) is listed as “effective at dispersing established biofilms”. The “biofilm dispersal in pre-screening of eight individual D-AAs” value in data set [5] (pre-formed biofilms of four clinical isolates, 0.001-50 mM, FIG. 7) is reported as “effective at dispersing biofilms”. The “fraction released at 4 weeks” value in data set [6] (PUR scaffold with 10 wt % D-AA mixture) is reported as “less than 40%”. Besides, the “cumulative release by day 28” value in data set [6] (PUR scaffold with 10 wt % D-AA mixture, PBS 37° C.) is 44%. Further, the burst release in data set [6] (day 1, PUR scaffold with 10 wt % 1:1:1 D-Met:D-Pro:D-Trp, PBS 37° C.) was 25%. In addition, in data set [6] (fit of D-AA release data), the “b parameter of Weibull model” value is 0.21. For the same compound, the “wound contamination (bioluminescence imaging and bacterial counts)” value in data set [7] was “reduced contamination”. The “release in 1 day” value in data set [8] is recorded as “about 80%”. Further, the “time to complete release” value in data set [8] is given as not above 3 days.
